The supplement of paper PMC10331698
± gives the standard deviation of the averaged measurements.

How the values were obtained:
Assay in all cases: level (log10 ratio to DMSO vehicle control); higher = higher biomarker level / cell amount than vehicle control
[1] = compound: C=C(C)C(=O)OCCC(F)(F)C(F)(F)C(F)(F)C(F)(F)C(F)(F)C(F)(F)C(F)(F)C(F)(F)F [8:2 Fluorotelomer methacrylate] (in DMSO)
Description: (§1)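 BioMAP Diversity Plus panel of 12 human primary cell co-culture systems (3C, 4H, LPS, SAg, BT, BF4T, BE3C, CASM3C, HDF3CGF, KF3CT, MyoF, Mphg). Compounds were added 1 h before stimulation and left for 24 h (MyoF 48 h; BT 72 h for soluble read-outs or 6 d for IgG). Biomarkers were read by ELISA, cytotoxicity by SRB, PBMC viability and proliferation by Alamar Blue. Each well value was divided by the mean of 8 DMSO control wells on the same plate and log10 transformed; duplicate blinded samples were tested at 4 concentrations.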

[2] = compound: C[C@@H]1C[C@H]2[C@@H]3CCC4=CC(=O)C=C[C@]4(C)[C@@]3(F)[C@@H](O)C[C@]2(C)[C@@]1(O)C(=O)COP(=O)(O)O [Dexamethasone sodium phosphate] (in DMSO)
Description: as §1

[3] = compound: OCC(F)(F)C(F)(F)C(F)(F)C(F)F [1H,1H,5H-Perfluoropentanol] (in DMSO)
Description: as §1

[4] = compound: NS(=O)(=O)C(F)(F)C(F)(F)C(F)(F)C(F)(F)C(F)(F)C(F)(F)C(F)(F)C(F)(F)F [Perfluorooctanesulfonamide] (in DMSO)
Description: as §1

[5] = compound: O=S(=O)(O)C(F)(F)C(F)(F)C(F)(F)C(F)(F)C(F)(F)C(F)(F)C(F)(F)F [Perfluoroheptanesulfonic acid] (in DMSO)
Description: as §1

Octafluoroadipic acid = compound: O=C(O)C(F)(F)C(F)(F)C(F)(F)C(F)(F)C(=O)O [Octafluoroadipic acid] (in DMSO)
Description: as §1

| Test System | level (log10) ([1]; 6700 nM) | level (log10) ([1]; 20000 nM) | level (log10) ([2]; 1500 nM) | level (log10) ([2]; 4400 nM) | level (log10) ([2]; 13000 nM) | level (log10) ([2]; 40000 nM) | level (log10) ([3]; 6700 nM) | level (log10) ([3]; 20000 nM) | level (log10) ([3]; 60000 nM) | level (log10) ([4]; 6700 nM) | level (log10) ([4]; 20000 nM) | level (log10) ([5]; 1500 nM) | level (log10) ([5]; 4400 nM) | level (log10) ([5]; 13000 nM) | level (log10) ([5]; 40000 nM) | level (log10) (Octafluoroadipic acid; 6700 nM) | level (log10) (Octafluoroadipic acid; 20000 nM) | level (log10) (Octafluoroadipic acid; 60000 nM) |
| --- | --- | --- | --- | --- | --- | --- | --- | --- | --- | --- | --- | --- | --- | --- | --- | --- | --- | --- |
| SAg:CXCL9/MIG | 0.001 ± 0.0099 | 0.002 ± 0.0014 | 0.0095 ± 0.00071 | -0.0065 ± 0.0035 | -0.0125 ± 0.0035 | -0.005 ± 0.0099 | -0.0105 ± 0.00071 | 0.0005 ± 0.013 | 0.008 ± 0.023 | -0.002 ± 0.0042 | -0.0055 ± 0.011 | -0.0015 ± 0.0092 | -0.002 ± 0.018 | -0.004 ± 0.0085 | 0.008 | -0.0075 ± 0.016 | 0.005 ± 0.0028 | 0.011 ± 0.0057 |
| SAg:PBMC Cytotoxicity | -0.0215 ± 0.012 | 0.018 ± 0.011 | -0.013 ± 0.054 | 0.003 ± 0.037 | -0.05 ± 0.024 | -0.0395 ± 0.019 | -0.005 ± 0.0042 | 0.0025 ± 0.013 | 0.035 ± 0.058 | 0.009 ± 0.034 | 0.0315 ± 0.0064 | 0.026 ± 0.016 | -0.022 ± 0.033 | -0.0335 ± 0.00071 | 0.01 ± 0.033 | 0.0085 ± 0.0064 | -0.0165 ± 0.042 | 0.0155 ± 0.00071 |
| SAg:Proliferation | -0.0045 ± 0.053 | 0.052 ± 0.0028 | -0.001 ± 0.034 | 0.0035 ± 0.0078 | -0.0855 ± 0.005 | -0.023 ± 0.0099 | -0.0155 ± 0.011 | -0.0635 ± 0.016 | 0.025 ± 0.055 | -0.031 ± 0.042 | -0.0445 ± 0.036 | 0.0105 ± 0.026 | 0.0125 ± 0.029 | -0.024 ± 0.037 | 0.0325 ± 0.019 | -0.021 ± 0.016 | -0.0095 ± 0.0092 | -0.0065 ± 0.059 |
| SAg:SRB | -0.009 ± 0.0014 | -0.011 ± 0.018 | 0.0105 ± 0.0092 | 0.0005 ± 0.005 | 0.005 ± 0.016 | 0.003 ± 0.025 | -0.0075 ± 0.0021 | -0.009 ± 0.0014 | 0.001 ± 0.0085 | 0.0065 ± 0.005 | -0.0515 ± 0.0064 | -0.015 ± 0.0057 | -0.0125 ± 0.00071 | -0.0005 ± 0.012 | -0.0025 ± 0.013 | -0.01 ± 0.016 | -0.008 ± 0.014 | -0.012 ± 0.0014 |
